Assay results taken from publication PMC11928584, “H105A peptide eye drops promote photoreceptor survival in murine and human models of retinal degeneration” (Communications Medicine, 2025).
Where “and” joins values, the source holds several entries; their conditions need not be identical. Identical values can stand only once. Where a SMILES comes first, the peptide text is derived from it.

Key:
[1] = Fluorescence distribution of labeled peptides in retinal cross-sections; format: in vivo, C57BL/6J mice; conditions: Alexa Fluor 488-labeled peptide, eye drops, retinal cross-sections 1 h post-administration
Text: Fig. 1 Penetration and bioavailability of PEDF Peptides 17-mer, H105A, and R99A Delivered via Eye Drops in Mouse Retinas. a Peptide mapping and sequence. Tertiary structure of human PEDF highlighting the small peptide region with neurotrophic activity (17-mer) in blue (top). Primary structure of human PEDF showing the location of the 17-mer region (middle). Sequences of the 17-mer peptide and its variants, H105A and R99A (bottom). b In vivo detection of peptides. Fundus micrographs showing fluorescence from Alexa Fluor 488-labeled 17-mer, H105A, and R99A peptides in the eyes of C57BL/6J mice at P21 days after eye drop administration of 5 µl of peptide at 1 mg/ml (left). Fundus images were taken at 1, 3-, 6-, 24-, and 48 h post-administration. Quantification of fluorescence intensity over time post-administration (right). […] The amount of peptide was quantified from the fluorescence in retinal extracts using standard curves (Supplementary Fig. 1a). Each data point represents the amount of each peptide per eye with three eyes (n = 3) per time point. d Retinal cross-sections showing fluorescence distribution in the photoreceptor layer 1 h after applying eye drops as in Panel B. Representative images for labeled 17-mer, H105A, and R99A peptides are shown, with magnified areas of 17-mer and H105A indicated by dotted rectangles. […]

[2] = system: human iPSC-derived retinal organoids exposed to CSE; assay: TUNEL staining of retinal organoid sections; format: cell-based; conditions: Figure 8f, individual values, n=5
Description: Human iPSCs were differentiated into retinal organoids (ROs) following the protocol by Zhong et al.[41]. Briefly, on Day 0, hiPSC colonies were dissociated with dispase and grown in a suspension to form embryoid bodies, and slowly transitioned to neural induction media (DMEM/F12 (1:1), 1% N2 supplement (Invitrogen), 1 x minimum essential media-nonessential amino acids (NEAAs), 2 µg/ml heparin (Sigma)). On Day 7, EBs were seeded on Matrigel coated plates and maintained in neural induction media. On Day 16, the media was switched to the retinal differentiation medium (DMEM/F12 (3:1), 2% B27 (without vitamin A, Invitrogen), 1x NEAA and 1% antibiotic–antimycotic (Gibco)). Retinal domains were identified and lifted manually with tungsten needles between Day 21 and Day 26 under a phase contrast microscope. On day 30, the culture medium was transitioned to DMEM/F12 (3:1) with 2% B27, 1x NEAA, 1% antibiotic–antimycotic, 10% fetal bovine serum (FBS; Gibco), […] Taurine (Sigma), and 2 mM GlutaMAX (Invitrogen). Additionally, 1 µM retinoic acid supplement was introduced daily starting from day 63. On day 91, the medium was modified to DMEM/F12 (1:1) supplemented with 1% N2, 1 x NEAAs, 1% antibiotic–antimycotic, 10% FBS, […] Taurine and 2 mM GlutaMAX, and the concentration of retinoic acid supplementation was reduced to 0.5 µM for the remainder of the culture period. The use of hiPSCs in this study conforms to the University of Colorado Institutional Biosafety Committee standards. […]
D180 ROs were treated with each of the 5 experimental conditions, as described above (n = 5 for each condition), washed with PBS three times, and fixed with 4% paraformaldehyde for 10 min at room temperature. […] Fluorescence images were acquired with a Nikon C2 Confocal Microscope A1 (Minato City, Tokyo, Japan) and stitched together using Nikon Elements Software. Images were analysed with Fiji. The relative area of positive immunostaining was calculated as a percentage of total retinal area. […]

| SMILES | distribution of labeled peptide in photoreceptor layer [1] | Relative TUNEL(+) area ([2]; CSE + peptide 1nM) | Relative TUNEL(+) area ([2]; CSE + peptide 20nM) |
| --- | --- | --- | --- |
| CC[C@H](C)[C@H](NC(=O)[C@H](CC(C)C)NC(=O)[C@H](CC(=O)O)NC(=O)[C@H](Cc1ccc(O)cc1)NC(=O)[C@H](Cc1ccc(O)cc1)NC(=O)[C@H](CC(C)C)NC(=O)[C@H](C)NC(=O)[C@H](CCCNC(=N)N)NC(=O)[C@H](Cc1c[nH]cn1)NC(=O)[C@@H](NC(=O)[C@@H](NC(=O)[C@H](CO)NC(=O)[C@H](CCC(=O)O)NC(=O)[C@@H](NC(=O)[C@H](CCCNC(=N)N)NC(=O)[C@@H](N)CCC(N)=O)[C@@H](C)O)[C@@H](C)CC)[C@@H](C)CC)C(=O)N[C@@H](CO)C(=O)O [17-mer] (H-QRTESIIHRALYYDLIS-OH) | decorated the OS in a punctuated fashion | – | – |
| CC[C@H](C)[C@H](NC(=O)[C@H](CC(C)C)NC(=O)[C@H](CC(=O)O)NC(=O)[C@H](Cc1ccc(O)cc1)NC(=O)[C@H](Cc1ccc(O)cc1)NC(=O)[C@H](CC(C)C)NC(=O)[C@H](C)NC(=O)[C@H](CCCNC(=N)N)NC(=O)[C@H](C)NC(=O)[C@@H](NC(=O)[C@@H](NC(=O)[C@H](CO)NC(=O)[C@H](CCC(=O)O)NC(=O)[C@@H](NC(=O)[C@H](CCCNC(=N)N)NC(=O)[C@@H](N)CCC(N)=O)[C@@H](C)O)[C@@H](C)CC)[C@@H](C)CC)C(=O)N[C@@H](CO)C(=O)O [H150A] (H-QRTESIIARALYYDLIS-OH) | – | 2.16 and 2.78 and 3.68 and 2.70 and 2.54 | 1.75 and 2.66 and 2.53 and 2.94 and 1.87 |
